Test results from a melting point compilation (Tetko et al.; mined from patent text by program, amines drawn as free bases though some values may be those of a salt).

With `COC(=O)CN(c1ccccc1C)S(=O)(=O)c1ccccc1C(=O)c1cc(OC)c2c(c1)OCO2` the melting point was 159 to 170 °C.
In the case of `CCOC(=O)c1cc2cc(Cl)cc([N+](=O)[O-])c2o1`, the melting point is reported as 111 to 112 °C.
`CCOc1cc(C(=O)CCCC2CCCCC2)c(OCC)cc1C` gave a melting point of 49 to 50 °C.
`Cn1ncc2[nH]c3ccc(F)cc3c(=O)c21` showed a melting point of 301 °C.
For `O=c1c2c(cnn1Cc1ccccc1)C(Cc1ccccc1)NCCO2` (centres undefined), the melting point was 70 °C.
With `COc1ccc(C=Cc2ccc(C)cc2)c(Cl)c1` the melting point was 144 to 145 °C.
Work on `CN(C)CCON=C1c2ccccc2C2CC2c2ccccc21` (centres undefined) yielded a melting point of 69 to 70 °C.
With `CS(=O)(=O)Nc1ccc(NC(=O)CCCc2ccc(N=C(N)c3cccs3)cc2)cc1` the melting point was 187 to 188 °C.
Compound `O=C1NCCN1Cc1cccc2ccccc12` has a melting point of 121 to 125 °C.
`Cc1ccccc1SC(NC=O)c1sccc1C` (centres undefined) showed a melting point of 103 to 104 °C.
`CN(C)CCNC1=CC(=O)c2oc(-c3cc(F)ccc3F)nc2C1=O` gave a melting point of 181 to 182 °C.
Work on `CC(C)(C)C(=O)Nc1c(SC(F)(F)F)c(C#N)nn1-c1c(Cl)cc(C(F)(F)F)cc1Cl` yielded a melting point of 172 to 174 °C.
`Clc1ccc(Nc2ncc(CCc3cccnc3)c3ccccc23)cc1` showed a melting point of 157 to 158 °C.
`CNC(=O)c1cccc(NC(=O)Cc2ccccc2Cl)c1` showed a melting point of 211 to 212 °C.
With `CCCc1nn(-c2ccc(C(F)(F)F)cn2)cc1C=O` the melting point was 52 to 53 °C.
In the case of `COc1ccccc1OCC1SCCN1S(C)(=O)=O` (centres undefined), the melting point is reported as 118 to 120 °C.
With `Fc1cccc(F)c1-c1ncc(C=Cc2ccc(Cl)cc2)nn1` the melting point was 135 to 140 °C.
Work on `CCOC(=O)c1cn(CCF)c2nc(N3CCC(N(C)C(C)=O)C3)c(F)cc2c1=O` (centres undefined) yielded a melting point of 227 to 229 °C.
`N#Cc1cc2cccc(NS(=O)(=O)c3cccs3)c2[nH]1` showed a melting point of 283 to 284 °C.
`CCCC(C)Oc1cc(-n2c(=O)cc(C(F)(F)F)n(C)c2=O)c(F)cc1Cl` (centres undefined) gave a melting point of 94 to 97 °C.
With `COC1=C(c2cccc(C(F)(F)F)c2)C(=O)OC1` the melting point was 126 °C.
`O=c1ccn(-c2ccc(N3CCOCC3)cc2)nc1-c1ccnn1-c1ccccc1` showed a melting point of 205 to 206 °C.
In the case of `CCOC(=O)C=Cc1cccc([N+](=O)[O-])c1C`, the melting point is reported as 53 to 55 °C.
With `N#Cc1nn(-c2c(Cl)cc(C(F)(F)F)cc2Cl)cc1-c1ccoc1Br` the melting point was 111 °C.
Work on `Cc1cc(Br)cnc1CCCCNc1ncc(Cc2cccnc2)cc1O` yielded a melting point of 164 to 166 °C.
`NC(=O)N(O)CCOCc1ccsc1` gave a melting point of 99 to 100 °C.
Compound `Cc1cccc(Sc2cncc3sc(C(N)=O)cc23)c1` has a melting point of 171 to 173 °C.
In the case of `CC(=O)c1ccc(-c2ccc(F)cc2Cl)c([N+](=O)[O-])c1`, the melting point is reported as 93 to 95 °C.
Work on `Cc1cccc(C(=O)Nc2nc3ccccc3c(NCc3ccccc3)c2C#N)c1` yielded a melting point of 230 °C.
Work on `CN(C)CCCOc1ccc(-c2ccc(C(=O)O)cc2)cc1-c1ccc2c(c1)C(C)(C)CCC2(C)C` yielded a melting point of 199 °C.
Work on `O=C(Nc1ccc(Cl)cc1Cl)c1cc(Cl)c(Cl)[nH]1` yielded a melting point of 262 to 264 °C.
In the case of `COC(=O)c1ccc(OC2=C3N=C4CCCCC4=C3C(Cc3ccc(OC)cc3)C=C2)o1` (centres undefined), the melting point is reported as 79 to 80 °C.
Work on `COC(=O)c1ccc(C(c2ccccc2)(c2ccccc2)c2ccccc2)cn1` yielded a melting point of 160 to 164 °C.
`O=C(O)c1cnn2c(C(F)F)cc(-c3ccc(Cl)cc3)nc12` gave a melting point of 232 °C.
Compound `CCc1c(NC(=O)OC(C)(C)C)cccc1NC(=O)c1ccc(Br)cc1` has a melting point of 181 to 183 °C.
With `N#Cc1cccc(N2CCc3cc(Cl)ccc32)c1` the melting point was 120 to 121 °C.
With `CCC(C)c1ccc2ccccc2c1C(=O)O` (centres undefined) the melting point was 168 to 170 °C.
In the case of `COc1cc(OC)nc(NC(=O)NS(=O)(=O)c2ccccc2OC(F)(F)F)n1`, the melting point is reported as 170 °C.
`CN1COc2c(N3CC4CCOC4(CNC(=O)OC(C)(C)C)C3)c(F)cc3c(=O)c(C(=O)O)cn1c23` (centres undefined) showed a melting point of 176 °C.
Compound `CC(C)(C)C(=O)NC1CCC(c2cc(Nc3cccc(C(F)(F)F)c3)n[nH]2)C1` (centres undefined) has a melting point of 249 °C.
With `COc1ccc(S(=O)(=O)c2c(Br)cc(CC(=O)O)cc2Br)cc1C(C)C` the melting point was 170 to 173 °C.
`O=c1c(Br)c(OCc2ccccc2)ccn1CCc1ccsc1` gave a melting point of 134 °C.
For `CCOC(=O)CNC(=O)Nc1cnc(Nc2ccc(Cl)c(Cl)c2)nc1NC`, the melting point was 304 °C.
In the case of `Cn1ncc(/C=C/C(=O)Nc2ccc(CC(C)(C)C)cc2)c1-c1ccc(F)cc1`, the melting point is reported as 150 to 151 °C.
In the case of `CCOC1(C#N)NC(=O)C(=O)NC1(C#N)OCC` (centres undefined), the melting point is reported as 205 to 208 °C.
Work on `Cn1cccc1-c1ccc2c(c1)C1(CCCCC1)C(=O)N2` yielded a melting point of 210 °C.
For `CC(=O)N1CCc2ccc(SCc3ccccc3)c(N)c2C1`, the melting point was 133 to 136 °C.
In the case of `Cc1ccc(C)c(S(=O)(=O)Nc2onc(C)c2Cl)c1`, the melting point is reported as 92 to 93 °C.
`NC(=O)CNC(=O)c1ccnc(-c2cccc3sc(Cc4cccc(C(F)(F)F)c4)cc23)c1` gave a melting point of 49 to 50 °C.
`NC(=O)NN=Cc1ccc(Oc2cc(Cl)ccn2)cc1` gave a melting point of 231 to 233 °C.
For `CCOC(=O)Cc1ccc(-c2nc(COc3cc(CO)on3)c(C)o2)cc1`, the melting point was 116 to 117 °C.
Compound `Nc1ccc(C(=O)OC2CCN(Cc3ccccc3)CC2)cc1` has a melting point of 119 to 120 °C.
`CC(C)(C)C(=O)C=Cc1ccc(Cl)cc1` showed a melting point of 83 to 84 °C.
For `CCOC(=O)c1cnoc1-c1ccc(Cl)s1`, the melting point was 74 to 75 °C.
With `CC(C)n1nc(-c2c(-c3ccccc3)nc(N)nc2N2CCOCC2)ccc1=O` the melting point was 251 to 253 °C.
With `O=S(=O)(Nc1cnc(Oc2cc3ccccc3cn2)c(Cl)c1)c1ccc(Cl)cc1Cl` the melting point was 203 to 205 °C.
`O=C(O)CCSC1c2ccc(-c3nnn[nH]3)cc2COc2ccc(OCc3ccc4ccccc4n3)cc21` (centres undefined) showed a melting point of 151 to 153 °C.
`O=c1oc2ccccc2c2c(-c3ccccc3)c3c4ccccc4ccn3c12` gave a melting point of 313 to 315 °C.
For `Nc1ccc(Oc2ccccc2-c2ccccc2Oc2ccc(N)c(N)c2)cc1N`, the melting point was 172 to 174 °C.
With `CCC[C@H]1CC[C@H](c2ncc(C(=O)OCC)c(O)n2)CC1` the melting point was 156 to 157 °C.
`Oc1ccc2nc(-c3ccc(Cl)cc3)oc2c1` showed a melting point of 273 to 274 °C.
In the case of `CN(C)C(=O)Nc1ccc(Br)cc1`, the melting point is reported as 168 to 170 °C.
Compound `O=C(NCCC1CCCCC1)c1cc(-c2ccc(Cl)c(C(=O)O)n2)ccc1Cl` has a melting point of 116 to 120 °C.
`N#Cc1ccc(Nn2cnnc2)cc1Br` showed a melting point of 234 to 236 °C.
In the case of `Cc1cc(O)nc(Br)c1`, the melting point is reported as 152 °C.
In the case of `O=Cc1cc(Cl)ccc1Oc1ccccc1[N+](=O)[O-]`, the melting point is reported as 103 to 105 °C.
`COc1cc2c(cc1OC)C(=O)C(C)C(C)O2` (centres undefined) gave a melting point of 171 to 172 °C.
`O=C(c1ccc2nonc2c1)N1CC2CC1CO2` (centres undefined) showed a melting point of 102 to 104 °C.
Compound `CN1CCC(Oc2ccc(C(=O)NN)cc2)CC1` has a melting point of 110 to 112 °C.
`CCCOc1cc2c(c3c1OC(C)(C)C3)C(c1cccc(-c3ccncc3)c1)=NC(C)(C)C2` showed a melting point of 132 to 134 °C.
`CCCNC(=O)C(C)Cc1ccc2c(c1)c(Cc1ccc(C(=O)NS(=O)(=O)c3ccccc3C)cc1OC)cn2C(C)C` (centres undefined) gave a melting point of 182 to 184 °C.
`CC(=O)OCCC1CCN(CCCN2c3cc(OCc4ccccc4)ccc3Sc3c2cccc3S(=O)(=O)N(C)C)CC1` gave a melting point of 94 to 96 °C.
In the case of `CC(=O)Nc1ccc(S(=O)(=O)NCc2cc3c(ccc4cnn(C[C@H](C)N)c43)o2)cc1`, the melting point is reported as 80 to 85 °C.
`Cc1cc(-c2nc3ccccc3c(=O)n2-c2ccc(Br)cc2)ccc1OCCO` gave a melting point of 92 to 93 °C.
`Cc1cc(-n2cncn2)c2cccc(OCc3c(Cl)ccc(S(=O)(=O)N4CCC[C@H]4C(=O)NCC4CCN(CC(=O)OC(C)(C)C)CC4)c3Cl)c2n1` showed a melting point of 50 °C.
Compound `O=S(=O)(Nc1ccc(Cl)cc1C(=NOCc1ccc(Cl)c(Cl)c1)c1ccccc1)C(F)(F)F` has a melting point of 87 to 88 °C.
Compound `CN(C)CCCn1c2c(c3ccccc31)CCSCCC2` has a melting point of 70 to 71 °C.
`CCc1nnc(-c2ccc(NC)cc2)n1-c1ccc(OC)cc1` showed a melting point of 198 °C.
`O=C(NCC(=O)c1cccs1)c1ccccc1` gave a melting point of 146 to 147 °C.
Work on `COc1ccc(COC(=O)[C@H]2CC[C@H](C(=O)O)CC2)cc1` yielded a melting point of 87 to 89 °C.
Work on `Cc1ccc(-c2ccc(=S)[nH]n2)c(OCC(O)CNC(C)(C)C)c1` (centres undefined) yielded a melting point of 135 to 140 °C.
Work on `Cc1cc2oc(NC(=O)Nc3c(C)cccc3C)c(-c3ccccc3Cl)c2cc1C` yielded a melting point of 252 to 254 °C.
Work on `CC1(C)Oc2ccc(C#N)cc2[C@@H](NNC(=O)c2ccccc2)[C@@H]1O` (relative stereo) yielded a melting point of 197 to 199 °C.
For `CCCO[Si](C)(CCN=C(O)C1(C)C(C)(C(=O)O)C(C)(C(=O)O)C1(C)C(O)=NCC[Si](C)(OCCC)OCCC)OCCC` (centres undefined), the melting point was 151 °C.
For `CCCc1c(OCC(O)COc2cccc(N)c2)ccc(C(C)=O)c1O` (centres undefined), the melting point was 85 to 89 °C.
`CC(C)c1ccc(C(=O)O)cc1S(N)(=O)=O` showed a melting point of 245 °C.
Work on `O=C(Cc1ccccc1)NC1C(=O)N2C1SC1(CCN(Cc3ccccc3)CC1)C2C(=O)OCc1ccccc1` (centres undefined) yielded a melting point of 130 to 131 °C.
For `CCN1C(=O)CCc2cc(Sc3cccc([C@@]4(O)CCO[C@@H](C)C4)c3)ccc21`, the melting point was 148 to 149 °C.
`OCc1cn2c(n1)CN=C(c1ccccc1F)c1cc(Cl)ccc1-2` gave a melting point of 196 to 200 °C.
For `NCCCc1cn(C(c2ccccc2)(c2ccccc2)c2ccccc2)cn1`, the melting point was 112 to 113 °C.
In the case of `CN(CC(O)c1cccc(OCc2ccccc2)c1)C(=O)c1cnc(N(C)C)nc1-c1ccc(Cl)c(Cl)c1` (centres undefined), the melting point is reported as 68 to 70 °C.
`CC(C)(C)OC(=O)NC1CCCCCC=CC2CC2(C(=O)NS(=O)(=O)C2CC2)NC(=O)C2CC(OC(=O)c3ccc4c(c3)OCCO4)CN2C1=O` (centres undefined) gave a melting point of 199 to 201 °C.
Work on `CC(C)(CCCCC(=O)CCCCC(C)(C)C(=O)O)C(=O)O` yielded a melting point of 60 to 61.5 °C.
In the case of `Cc1cccc(NC(=O)NC2(C)N=C(N3CCN(C)CC3)c3cccc(C)c3N(C)C2=O)c1` (centres undefined), the melting point is reported as 136 to 140 °C.
Compound `O=C(O)CNC(=O)c1c(O)n(C2CCCC2)c(=O)n(C2CCCCC2)c1=O` has a melting point of 222 to 224 °C.
`CC(=O)Nc1ccc2c(c1)NC(=O)C2CC(C)C` (centres undefined) showed a melting point of 214 to 216 °C.
With `FC(F)(F)c1ccc(-c2cc(C(F)(F)F)n3ncc(Br)c3n2)cc1` the melting point was 136 °C.
`Nc1cccc(Oc2ccc3c(c2)OCC(=O)N3)c1` gave a melting point of 209 to 210 °C.
Work on `CCCCn1cnc2c1c(=O)n(CCCCC(C)=O)c(=O)n2C` yielded a melting point of 79 to 80 °C.
